Where two headings read alike, the source gives them in different places. Peptide text beside a SMILES is read from it. * marks the point of attachment. βNA = c1ccc2cc(N*)ccc2c1
Assays:
Format in all cases: biochemical
A. suis = assay: Aminopeptidase activity on β-naphthylamide substrates; settings: strain ATCC 15557; β-naphthylamine liberated after 60 minutes, 37° C.
Description: (§1) The enzyme activity was measured by the chromogenic properties of N-CBz-glycyl-glycyl-L-arginine-β-naphthylamide which upon hydrolysis gives a visible color. The aminopeptidase activities listed in the table reflect the nanomoles of β-naphthylamine liberated after 60 minutes under the conditions described below.
(§2) After mixing, the solution is incubated for 1 hour at 37° C. and then 0.4 ml of a solution of stabilized diazonium salt, Fast Garnet GBC (0.5 mg/ml) in a 1M acetic acid buffer (pH 4.2), containing 10% Tween 20 was added to the mixture. After standing for 15 minutes at room temperature, the color reaction can be read manually by comparison with standard solutions or the absorbancy can be determined using a spectrophotometer at 525 nm. The reaction mixture without enzyme solution is used as a control.
(§3) The enzyme activity and the aminopeptidase activities were determined in the manner described above in regard to Table I.

A. equuli = assay: as above; settings: strain ATCC 19392; β-naphthylamine liberated after 60 minutes, 37° C.
Description: as §1, §2, §3

F. periodonticum = assay: as above; settings: strain EK1-15; β-naphthylamine liberated after 60 minutes, 37° C.
Description: as §1, §2, §3

L. fermentum = assay: as above; settings: strain ATCC 11581; β-naphthylamine liberated after 60 minutes, 37° C.
Description: as §1, §2, §3

Lactobacillus casei = assay: as above; settings: β-naphthylamine liberated after 60 minutes, 37° C.
Description: as §1, §2, §3

S. salivarius = assay: as above; settings: β-naphthylamine liberated after 60 minutes, 37° C.
Description: as §1, §2, §3

Haemophilus aphrophilus = assay: as above; settings: β-naphthylamine liberated after 60 minutes, 37° C.
Description: as §1, §2, §3

Bacteroides gingivalis = settings: β-naphthylamine liberated after 60 minutes, 37° C.
Description: as §1, §2

[1] = test system: Capnocytophaga gingivalis; settings: strain ATCC 33624; β-naphthylamine liberated after 60 minutes, 37° C.
Description: as §1, §2

Capnocytophaga sp. = settings: strain JD3-5; β-naphthylamine liberated after 60 minutes, 37° C.
Description: as §1, §2

B. asaccharolyticus = settings: β-naphthylamine liberated after 60 minutes, 37° C.
Description: as §1, §2

B. loescheii = settings: β-naphthylamine liberated after 60 minutes, 37° C.
Description: as §1, §2

B. levii = settings: β-naphthylamine liberated after 60 minutes, 37° C.
Description: as §1, §2

B. mel. ss. intermedius = settings: β-naphthylamine liberated after 60 minutes, 37° C.
Description: as §1, §2

C. ochracea = settings: strain ATCC 27872; β-naphthylamine liberated after 60 minutes, 37° C.
Description: as §1, §2

V. parvula = settings: strain ATCC 10790; β-naphthylamine liberated after 60 minutes, 37° C.
Description: as §1, §2, §3

Streptococcus mitis = settings: β-naphthylamine liberated after 60 minutes, 37° C.
Description: as §1, §2, §3

[2] = test system: Actinobacillus actinomycetemcomitans; settings: β-naphthylamine liberated after 60 minutes, 37° C.
Description: as §1, §2, §3

S. mutans = settings: strain ATCC 25175; β-naphthylamine liberated after 60 minutes, 37° C.
Description: as §1, §2, §3

Actinomyces israeli = settings: β-naphthylamine liberated after 60 minutes, 37° C.
Description: as §1, §2, §3

Fusobacterium nucleatum = settings: β-naphthylamine liberated after 60 minutes, 37° C.
Description: as §1, §2, §3

Eikenella corrodens = settings: strain BP1-6; β-naphthylamine liberated after 60 minutes, 37° C.
Description: as §1, §2, §3

Veillonella sp. = settings: strain SE1M2; β-naphthylamine liberated after 60 minutes, 37° C.
Description: as §1, §2, §3

B. corporis = assay: Aminopeptidase activity on β-naphthylamide substrates; settings: strain ATCC 33547; β-naphthylamine liberated after 60 minutes, 37° C.
Description: as §1, §2

B. melaninogenicus = assay: as above; settings: strain ATCC 25845; β-naphthylamine liberated after 60 minutes, 37° C.
Description: as §1, §2

C. sputigena = assay: as above; settings: strain ATCC 33123; β-naphthylamine liberated after 60 minutes, 37° C.
Description: as §1, §2

B. denticola = assay: as above; settings: strain ATCC 33185; β-naphthylamine liberated after 60 minutes, 37° C.
Description: as §1, §2

B. intermedius = assay: as above; settings: strain ATCC 25611; β-naphthylamine liberated after 60 minutes, 37° C.
Description: as §1, §2

CSCCC(N)C(=O)Nc1ccc2ccccc2c1 (racemic)
Aminopeptidase activity (A. suis): 0 nmol
Aminopeptidase activity (A. equuli): 0 nmol
Aminopeptidase activity (F. periodonticum): 0 nmol
Aminopeptidase activity (L. fermentum): 6 nmol
Aminopeptidase activity (Lactobacillus casei; strain ATCC 7469): 1 nmol
Aminopeptidase activity (Lactobacillus casei; strain ATCC 11578): 9 nmol
Aminopeptidase activity (Lactobacillus casei; strain ATCC 11582): 9 nmol
Aminopeptidase activity (S. salivarius; strain ATCC 9759): 5 nmol
Aminopeptidase activity (S. salivarius; strain ATCC 25975): 1 nmol
Aminopeptidase activity (Haemophilus aphrophilus; strain ATCC 13252): 0 nmol
Aminopeptidase activity (Haemophilus aphrophilus; strain ATCC 19415): 0 nmol
Aminopeptidase activity (Haemophilus aphrophilus; strain NCTC 5908): 0 nmol
Aminopeptidase activity (Bacteroides gingivalis; strain 9-14K-1): 0 nmol
Aminopeptidase activity (Bacteroides gingivalis; strain 11-1-2): 0 nmol
Aminopeptidase activity (Bacteroides gingivalis; strain 381): 0 nmol
Aminopeptidase activity (Bacteroides gingivalis; strain 1021): 0 nmol
Aminopeptidase activity (Bacteroides gingivalis; strain ATCC 33277): 0 nmol
Aminopeptidase activity (Bacteroides gingivalis; strain FAYE 19m-1): 0 nmol
Aminopeptidase activity [1]: 122 nmol
Aminopeptidase activity (Capnocytophaga sp.): 28 nmol
Aminopeptidase activity (B. asaccharolyticus; strain 536B): 0 nmol
Aminopeptidase activity (B. asaccharolyticus; strain ATCC 18569): 0 nmol
Aminopeptidase activity (B. asaccharolyticus; strain ATCC 25260): 1 nmol
Aminopeptidase activity (B. asaccharolyticus; strain ATCC 27067): 2 nmol
Aminopeptidase activity (B. asaccharolyticus; strain NY446): 0 nmol
Aminopeptidase activity (B. loescheii; strain ATCC 15930): 0 nmol
Aminopeptidase activity (B. loescheii; strain VPI4196): 0 nmol
Aminopeptidase activity (B. levii; strain 18-1-5): 0 nmol
Aminopeptidase activity (B. levii; strain 18-1-8): 1 nmol
Aminopeptidase activity (B. mel. ss. intermedius; strain ATCC 25261): 0 nmol
Aminopeptidase activity (B. mel. ss. intermedius; strain ATCC 33563): 0 nmol
Aminopeptidase activity (B. mel. ss. intermedius; strain NCTC 9336): 0 nmol
Aminopeptidase activity (C. ochracea): 118 nmol
Aminopeptidase activity (V. parvula): 0 nmol
Aminopeptidase activity (Streptococcus mitis; strain ATCC 9815): 52 nmol
Aminopeptidase activity (Streptococcus mitis; strain ATCC 15909): 12 nmol
Aminopeptidase activity (Streptococcus mitis; strain ATCC 15911): 13 nmol
Aminopeptidase activity (Streptococcus mitis; strain ATCC 15912): 17 nmol
Aminopeptidase activity ([2]; strain 67): 0 nmol
Aminopeptidase activity ([2]; strain 75): 0 nmol
Aminopeptidase activity ([2]; strain ATCC 29523): 1 nmol
Aminopeptidase activity ([2]; strain NCTC 9709): 0 nmol
Aminopeptidase activity ([2]; strain Y4): 0 nmol
Aminopeptidase activity (S. mutans): 5 nmol
Aminopeptidase activity (Actinomyces israeli; strain ATCC 12103): 12 nmol
Aminopeptidase activity (Actinomyces israeli; strain DK2-3): 33 nmol
Aminopeptidase activity (Fusobacterium nucleatum; strain 2): 1 nmol
Aminopeptidase activity (Fusobacterium nucleatum; strain ATCC 25586): 0 nmol
Aminopeptidase activity (Fusobacterium nucleatum; strain D31A-24): 0 nmol
Aminopeptidase activity (Eikenella corrodens): 3 nmol
Aminopeptidase activity (Veillonella sp.): 0 nmol
Aminopeptidase activity (B. corporis): 0 nmol
Aminopeptidase activity (B. melaninogenicus): 1 nmol
Aminopeptidase activity (C. sputigena): 117 nmol
Aminopeptidase activity (B. denticola): 0 nmol
Aminopeptidase activity (B. intermedius): 0 nmol

C[C@H](N)C(=O)N[C@@H](C)C(=O)N[C@@H](Cc1ccccc1)C(=O)Nc1ccc2ccccc2c1 [Ala-Ala-Phe] (H-Ala-Ala-Phe-βNA)
Aminopeptidase activity (A. suis): 0 nmol
Aminopeptidase activity (A. equuli): 0 nmol
Aminopeptidase activity (F. periodonticum): 1 nmol
Aminopeptidase activity (L. fermentum): 5 nmol
Aminopeptidase activity (Lactobacillus casei; strain ATCC 7469): 0 nmol
Aminopeptidase activity (Lactobacillus casei; strain ATCC 11578): 3 nmol
Aminopeptidase activity (Lactobacillus casei; strain ATCC 11582): 3 nmol
Aminopeptidase activity (S. salivarius; strain ATCC 9759): 0 nmol
Aminopeptidase activity (S. salivarius; strain ATCC 25975): 0 nmol
Aminopeptidase activity (Haemophilus aphrophilus; strain ATCC 13252): 0 nmol
Aminopeptidase activity (Haemophilus aphrophilus; strain ATCC 19415): 0 nmol
Aminopeptidase activity (Haemophilus aphrophilus; strain NCTC 5908): 0 nmol
Aminopeptidase activity (Bacteroides gingivalis; strain 9-14K-1): 0 nmol
Aminopeptidase activity (Bacteroides gingivalis; strain 11-1-2): 0 nmol
Aminopeptidase activity (Bacteroides gingivalis; strain 381): 0 nmol
Aminopeptidase activity (Bacteroides gingivalis; strain 1021): 0 nmol
Aminopeptidase activity (Bacteroides gingivalis; strain ATCC 33277): 1 nmol
Aminopeptidase activity (Bacteroides gingivalis; strain FAYE 19m-1): 3 nmol
Aminopeptidase activity [1]: 72 nmol
Aminopeptidase activity (Capnocytophaga sp.): 0 nmol
Aminopeptidase activity (B. asaccharolyticus; strain 536B): 0 nmol
Aminopeptidase activity (B. asaccharolyticus; strain ATCC 18569): 0 nmol
Aminopeptidase activity (B. asaccharolyticus; strain ATCC 25260): 0 nmol
Aminopeptidase activity (B. asaccharolyticus; strain ATCC 27067): 0 nmol
Aminopeptidase activity (B. asaccharolyticus; strain NY446): 0 nmol
Aminopeptidase activity (B. loescheii; strain ATCC 15930): 1 nmol
Aminopeptidase activity (B. loescheii; strain VPI4196): 0 nmol
Aminopeptidase activity (B. levii; strain 18-1-5): 0 nmol
Aminopeptidase activity (B. levii; strain 18-1-8): 0 nmol
Aminopeptidase activity (B. mel. ss. intermedius; strain ATCC 25261): 0 nmol
Aminopeptidase activity (B. mel. ss. intermedius; strain ATCC 33563): 0 nmol
Aminopeptidase activity (B. mel. ss. intermedius; strain NCTC 9336): 0 nmol
Aminopeptidase activity (C. ochracea): 82 nmol
Aminopeptidase activity (V. parvula): 0 nmol
Aminopeptidase activity (Streptococcus mitis; strain ATCC 9815): 3 nmol
Aminopeptidase activity (Streptococcus mitis; strain ATCC 15909): 1 nmol
Aminopeptidase activity (Streptococcus mitis; strain ATCC 15911): 0 nmol
Aminopeptidase activity (Streptococcus mitis; strain ATCC 15912): 0 nmol
Aminopeptidase activity ([2]; strain 67): 3 nmol
Aminopeptidase activity ([2]; strain 75): 1 nmol
Aminopeptidase activity ([2]; strain ATCC 29523): 0 nmol
Aminopeptidase activity ([2]; strain NCTC 9709): 1 nmol
Aminopeptidase activity ([2]; strain Y4): 0 nmol
Aminopeptidase activity (S. mutans): 0 nmol
Aminopeptidase activity (Actinomyces israeli; strain ATCC 12103): 3 nmol
Aminopeptidase activity (Actinomyces israeli; strain DK2-3): 0 nmol
Aminopeptidase activity (Fusobacterium nucleatum; strain 2): 2 nmol
Aminopeptidase activity (Fusobacterium nucleatum; strain ATCC 25586): 3 nmol
Aminopeptidase activity (Fusobacterium nucleatum; strain D31A-24): 0 nmol
Aminopeptidase activity (Eikenella corrodens): 0 nmol
Aminopeptidase activity (Veillonella sp.): 0 nmol
Aminopeptidase activity (B. corporis): 0 nmol
Aminopeptidase activity (B. melaninogenicus): 1 nmol
Aminopeptidase activity (C. sputigena): 44 nmol
Aminopeptidase activity (B. denticola): 2 nmol
Aminopeptidase activity (B. intermedius): 0 nmol

Source: US4994376A, “Detection of bacteroides gingivalis” (priority 1987, dated 1991)
